Reference: patent US7223759B2, “Antibacterial 3,5-diaminopiperidine-substituted aromatic and heteroaromatic compounds” (Anadys Pharmaceuticals, Inc., priority 2003, dated 2007)
Like-named read-outs stand apart in the source and are kept apart here.

System: Escherichia coli (ATCC25922) or Staphylococcus aureus (ATCC25923)
Test: Antibacterial MIC, microdilution method in Mueller-Hinton medium
Assay type: cell-based
Details: Escherichia coli, 18 h, read-out: Potency (MIC)
Summary of the method: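 Two-fold serial dilutions from 64 to 0.5 μg/ml, in duplicate, by broth microdilution in Mueller-Hinton medium (NCCLS M7-A5). MIC taken as the lowest concentration preventing visible growth after 18 h at 35° C.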

SMILES	MIC [µg/mL]	MIC (MIC in E. coli or S. aureus, two-fold serial dilutions 64 to 0.5 μg/ml in duplicate, 18 hours of incubation at 35° C.) [µg/mL]
N[C@@H]1C[C@H](N)CN(c2nc(NNc3cccc(Cl)c3)nc(N3C[C@H](N)C[C@H](N)C3)n2)C1 [N-(4,6-Bis-((3R,5S)-3,5-diamino-piperidin-1-yl)-[1,3,5]triazin-2-yl)-N′-(3-Chloro-phenyl)-hydrazine]	< 64	–
CCOC(=O)c1ccc(Nc2nc(N3C[C@H](N)C[C@H](N)C3)nc(N3C[C@H](N)C[C@H](N)C3)n2)cc1 [4-[4,6-Bis-((3R,5S)-3,5-diamino-piperidin-1-yl)-[1,3,5]triazin-2-ylamino]-benzoic acid ethyl ester]	–	> 64
N[C@@H]1C[C@H](N)CN(c2nc(NCCCn3ccnc3)nc(N3C[C@H](N)C[C@H](N)C3)n2)C1 [N-(3-imidazol-1-yl-propyl)-4,6-Bis-((3R,5S)-3,5-diamino-piperidin-1-yl)-[1,3,5]triazine-2-amine]	> 64	–
